In patent EP4624466A1, “DEGRADER FOR DECOMPOSING CMET PROTEIN, AND PHARMACEUTICAL COMPOSITION COMPRISING SAME” (Innocure Therapeutics, Inc., priority 2022, dated 2024):

What was measured:
SNU-638 = experiment: Cell viability / antiproliferative assay (WST-8), SNU-638; type: cell-based, human; conditions: Homo sapiens, SNU-638, 72 h, read-out: SNU-638 IC50
Experimental: (§2) c-MET overexpressing human gastric cancer cell lines [MKN45] and [SNU638] were cultured in RPMI medium with 10% fetal bovine serum, penicillin (100U/ml), and streptomycin (100mg/ml), and c-MET exon 14 skipping mutant human gastric cancer cell lines [Hs746T] were cultured in DMEM media. The c-MET overexpressing human lung cancer cell line EBC-1 was cultured in MEM media with the addition of 10% fetal bovine serum, penicillin (100U/ml), and streptomycin (100mg/ml). […] The compound synthesized in accordance with the present invention was prepared with a raw material solution of 10 mM dissolved in DMSO (dimethyl sulfoxide), and was sequentially diluted and processed.
(§3) In order to observe the inhibitory activity on cell growth, cells were dispensed in a 96-well plate at a concentration of 5,000 cells/well, and then treated with the compound prepared at various concentrations for 72 hours. The viability of the cells was calculated using GraphicPad Prism 8.0 software by adding 10 ml per well of WST-8 (water soluble tetrazolium salt) sample, which reacts with dehydrogenase present in the electron transport system of mitochondria to produce formazon, incubated for 2 hours, and measured absorbance at 450 nm.

Hs746T = experiment: Cell viability / antiproliferative assay (WST-8), Hs746T; type: cell-based; conditions: Homo sapiens, Hs746T cells, 72 hours, Table 2
Experimental: as §2, §3

c-MET [1] = molecular target: T1, c-MET (Homo sapiens, UniProt P08581); experiment: c-MET protein degradation (Simple Western), EBC-1; type: cell-based; set-up: assess the resolution of the compound of the present invention for c-MET expressed in cells; endogenous in cells; host or cells: EBC-1 (human lung cancer); conditions: c-MET overexpressing lung cancer cell line EBC-1, treated 48 hours; Table 2
T1 sequence (P08581 25-1390): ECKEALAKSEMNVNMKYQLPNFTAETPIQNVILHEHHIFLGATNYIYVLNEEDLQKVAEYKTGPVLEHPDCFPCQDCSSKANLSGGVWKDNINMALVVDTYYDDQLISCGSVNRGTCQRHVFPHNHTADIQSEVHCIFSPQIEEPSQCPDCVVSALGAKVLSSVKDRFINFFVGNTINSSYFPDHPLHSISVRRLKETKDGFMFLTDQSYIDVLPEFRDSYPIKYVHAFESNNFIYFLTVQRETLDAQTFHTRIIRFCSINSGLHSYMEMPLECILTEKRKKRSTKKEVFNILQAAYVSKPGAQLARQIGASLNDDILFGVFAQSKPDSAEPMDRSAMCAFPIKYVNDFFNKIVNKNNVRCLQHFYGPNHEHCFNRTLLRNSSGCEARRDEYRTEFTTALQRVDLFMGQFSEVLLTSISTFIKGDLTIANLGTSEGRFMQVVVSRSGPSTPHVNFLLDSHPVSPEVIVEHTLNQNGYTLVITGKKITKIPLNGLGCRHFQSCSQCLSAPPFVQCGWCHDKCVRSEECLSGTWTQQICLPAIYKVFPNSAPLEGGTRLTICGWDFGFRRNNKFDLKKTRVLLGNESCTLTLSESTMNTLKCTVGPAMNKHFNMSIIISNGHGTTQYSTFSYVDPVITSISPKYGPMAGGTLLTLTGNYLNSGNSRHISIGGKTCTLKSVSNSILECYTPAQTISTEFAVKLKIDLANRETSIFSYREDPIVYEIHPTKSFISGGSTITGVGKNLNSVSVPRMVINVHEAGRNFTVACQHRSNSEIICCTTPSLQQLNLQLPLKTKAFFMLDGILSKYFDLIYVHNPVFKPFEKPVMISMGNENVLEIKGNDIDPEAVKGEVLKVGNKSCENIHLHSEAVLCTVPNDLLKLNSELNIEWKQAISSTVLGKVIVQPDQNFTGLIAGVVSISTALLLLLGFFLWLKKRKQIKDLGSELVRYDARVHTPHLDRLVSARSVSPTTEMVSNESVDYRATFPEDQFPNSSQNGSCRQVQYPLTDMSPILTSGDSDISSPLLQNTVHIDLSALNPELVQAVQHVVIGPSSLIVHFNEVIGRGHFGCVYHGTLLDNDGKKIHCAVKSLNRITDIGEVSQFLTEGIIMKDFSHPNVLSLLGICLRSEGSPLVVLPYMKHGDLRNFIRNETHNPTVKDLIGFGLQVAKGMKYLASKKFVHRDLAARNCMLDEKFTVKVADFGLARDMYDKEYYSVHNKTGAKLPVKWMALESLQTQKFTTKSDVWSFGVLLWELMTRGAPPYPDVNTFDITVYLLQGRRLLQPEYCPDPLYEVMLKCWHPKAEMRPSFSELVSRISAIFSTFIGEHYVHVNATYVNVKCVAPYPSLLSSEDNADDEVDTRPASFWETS
Experimental: (§1) In order to assess the resolution of the compound of the present invention for c-MET expressed in cells, cells were dispensed in a 12-well plate at a concentration of 2 × 10^5 cells/well, and then gastric cancer cell lines were treated with samples for 24 hours and lung cancer cell lines were treated for 48 hours. Cell lysates were collected using a scraper on ice, centrifuged at 4°C15,000 rpm for 30 min to obtain a protein-containing supernatant. Protein expression was then measured using the Simple Western Automated Western Blot System Abby instrument using 3 µg of protein for each sample. SDS and heat-induced denaturation proteins were separated by molecular weight, attached to capillary, reacted with anti-c-MET or anti-GAPDH antibodies, which are primary antibodies, and then reacted with HRP-conjugated secondary antibodies, and analyzed the protein expression signal with compass software. Protein expression was normalized based on the expression value of GAPDH, and protein development in each sample was measured as a percentage (%) based on 100% of samples treated with 0.1% DMSO carriers, and DC50 (concentration of a compound where 50% protein inhibition is achieved) was calculated from the change in protein expression amount due to compound treatment.

EBC-1 = experiment: Cell viability / antiproliferative assay (WST-8), EBC-1; type: cell-based, human; conditions: Homo sapiens, EBC-1, 72 h, read-out: EBC-1 IC50
Experimental: as §2, §3

c-MET [2] = molecular target: T1, c-MET; experiment: c-MET protein degradation (Simple Western), SNU-638; type: cell-based; set-up: assess the resolution of the compound of the present invention for c-MET expressed in cells; endogenous in cells; host or cells: SNU638 (human gastric cancer); conditions: c-MET overexpressing gastric cancer cell line SNU-638, treated 24 hours; Table 2
Experimental: as §1

c-MET [3] = molecular target: T2, c-MET (Homo sapiens, UniProt P08581, DEL963-1009); experiment: c-MET protein degradation (Simple Western), Hs746T; type: cell-based; conditions: c-MET exon 14 skipping mutant gastric cancer cell line Hs746T, treated 24 hours; Table 2
T2 construct: assess the resolution of the compound of the present invention for c-MET expressed in cells; endogenous in cells; host or cells: Hs746T (human gastric cancer)
T2 sequence (P08581 with tags, fused parts or gaps DEL963-1009): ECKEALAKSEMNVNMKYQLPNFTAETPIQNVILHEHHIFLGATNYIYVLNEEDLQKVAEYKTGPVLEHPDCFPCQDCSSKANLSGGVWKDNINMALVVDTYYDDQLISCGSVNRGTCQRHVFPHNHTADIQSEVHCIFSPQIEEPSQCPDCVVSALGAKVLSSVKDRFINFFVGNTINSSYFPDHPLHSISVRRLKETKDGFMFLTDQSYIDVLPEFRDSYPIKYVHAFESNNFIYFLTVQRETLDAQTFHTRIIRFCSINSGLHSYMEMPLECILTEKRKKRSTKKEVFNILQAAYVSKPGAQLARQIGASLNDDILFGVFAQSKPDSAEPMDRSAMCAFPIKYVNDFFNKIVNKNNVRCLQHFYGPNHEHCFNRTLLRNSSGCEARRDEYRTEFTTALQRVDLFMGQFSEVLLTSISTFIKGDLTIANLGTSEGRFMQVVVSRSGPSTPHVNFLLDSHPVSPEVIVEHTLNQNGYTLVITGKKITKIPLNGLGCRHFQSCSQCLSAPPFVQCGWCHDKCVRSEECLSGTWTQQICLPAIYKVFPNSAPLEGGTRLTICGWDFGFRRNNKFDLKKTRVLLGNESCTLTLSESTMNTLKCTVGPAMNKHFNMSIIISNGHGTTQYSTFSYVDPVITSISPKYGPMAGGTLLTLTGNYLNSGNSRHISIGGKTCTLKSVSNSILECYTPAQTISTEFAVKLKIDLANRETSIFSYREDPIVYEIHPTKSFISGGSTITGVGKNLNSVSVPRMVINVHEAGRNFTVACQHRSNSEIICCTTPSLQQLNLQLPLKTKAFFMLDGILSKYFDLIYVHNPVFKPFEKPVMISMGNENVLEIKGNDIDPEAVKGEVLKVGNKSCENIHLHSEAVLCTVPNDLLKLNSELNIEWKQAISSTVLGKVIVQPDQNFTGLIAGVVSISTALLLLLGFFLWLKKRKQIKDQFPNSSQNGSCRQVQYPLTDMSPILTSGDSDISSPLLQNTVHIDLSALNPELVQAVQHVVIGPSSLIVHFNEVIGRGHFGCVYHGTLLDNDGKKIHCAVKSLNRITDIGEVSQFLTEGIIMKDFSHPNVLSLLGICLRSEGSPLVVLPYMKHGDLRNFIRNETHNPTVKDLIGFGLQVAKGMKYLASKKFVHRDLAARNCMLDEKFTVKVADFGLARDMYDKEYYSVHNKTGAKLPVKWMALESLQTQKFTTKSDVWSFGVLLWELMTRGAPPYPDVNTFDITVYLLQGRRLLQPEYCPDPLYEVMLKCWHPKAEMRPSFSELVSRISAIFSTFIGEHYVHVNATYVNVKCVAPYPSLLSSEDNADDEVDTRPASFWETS
T2 sequence (P08581 25-307 partner limits assumed): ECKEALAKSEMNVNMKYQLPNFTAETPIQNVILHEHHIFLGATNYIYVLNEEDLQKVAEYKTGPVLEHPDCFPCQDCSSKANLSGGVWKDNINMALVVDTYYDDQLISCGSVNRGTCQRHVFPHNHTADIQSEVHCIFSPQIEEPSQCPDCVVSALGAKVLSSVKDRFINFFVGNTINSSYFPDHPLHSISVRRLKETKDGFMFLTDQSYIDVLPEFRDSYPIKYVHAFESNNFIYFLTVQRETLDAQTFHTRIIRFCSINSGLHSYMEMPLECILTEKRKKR
Experimental: as §1

c-MET [4] = molecular target: T1, c-MET; experiment: c-MET protein degradation (Simple Western), MKN-45; type: cell-based; set-up: assess the resolution of the compound of the present invention for c-MET expressed in cells; endogenous in cells; host or cells: MKN45 (human gastric cancer); conditions: c-MET overexpressing gastric cancer cell line MKN-45, treated 24 hours; Table 2
Summary of the method: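 c-MET level, GAPDH-normalized and relative to 0.1% DMSO-treated cells, measured by automated capillary Western (3 µg protein) after compound exposure of 48 h for lung or 24 h for gastric cancer lines; DC50 = concentration giving 50% reduction.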

MKN-45 = experiment: Cell viability / antiproliferative assay (WST-8), MKN-45; conditions: Homo sapiens, MKN-45, 72 h, read-out: MKN-45 IC50;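 also: MKN-45 is a human gastric cancer line overexpressing c-MET, growth inhibition read as WST-8 formazan absorbance at 450 nm after 2 h dye incubation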

N#Cc1cccc(-c2ccc(=O)n(Cc3cccc(-c4ncc(N5CCN(CC6CCN(c7ccc(NC8CCC(=O)NC8=O)cc7F)CC6)CC5)cn4)c3)n2)c1 (stereo not shown) [ICT-0001402]
IC50 (SNU-638): < 100 nM | IC50 (Hs746T): < 100 nM | DC50 (c-MET [1]): < 100 nM | IC50 (EBC-1): < 100 nM | DC50 (c-MET [2]): < 100 nM | DC50 (c-MET [3]): < 100 nM

Cc1nn(C2CCC(=O)NC2=O)c(=O)c2ccc(N3CCN(C(=O)CCN4CCC(COc5cnc(-c6cccc(Cn7nc(-c8cccc(C#N)c8)ccc7=O)c6)nc5)CC4)CC3)cc12 (stereo not shown) [ICT-0001224]
IC50 (Hs746T): < 100 nM | DC50 (c-MET [4]): < 100 nM | IC50 (MKN-45): < 100 nM

Cc1nn(C2CCC(=O)NC2=O)c(=O)c2ccc(N3CCN(c4ccc(NC(=O)CN5CCC(COc6cnc(-c7cccc(Cn8nc(-c9cccc(C#N)c9)ccc8=O)c7)nc6)CC5)cc4)CC3)cc12 (stereo not shown) [ICT-0001207]
IC50 (SNU-638): < 100 nM | IC50 (Hs746T): 100 to 1000 nM | DC50 (c-MET [1]): < 100 nM | IC50 (EBC-1): < 100 nM | DC50 (c-MET [4]): < 100 nM | DC50 (c-MET [2]): < 100 nM | IC50 (MKN-45): < 100 nM | DC50 (c-MET [3]): < 100 nM

Cc1nn(C2CCC(=O)NC2=O)c(=O)c2cc(N3CCN(C(=O)CCN4CCC(COc5cnc(-c6cccc(Cn7nc(-c8cccc(C#N)c8)ccc7=O)c6)nc5)CC4)CC3)ccc12 (stereo not shown) [ICT-0001.225]
IC50 (Hs746T): < 100 nM | DC50 (c-MET [4]): < 100 nM | IC50 (MKN-45): < 100 nM

Cc1nn(C2CCC(=O)NC2=O)c(=O)c2ccc(N3CCN(C(=O)CCCN4CCC(COc5cnc(-c6cccc(Cn7nc(-c8cccc(C#N)c8)ccc7=O)c6)nc5)CC4)CC3)cc12 (stereo not shown) [ICT-0001227, 3-(1-(3-(5-((1-(4-(4-(2-(2,6-dioxopiperidin-3-yl)-4-methyl-1-oxo-1,2-dihydropetalazine-6-yl)piperazine-1-yl)4-oxobutyl)piperidine-4-yl)methoxy)pyrimidine-2-yl)benzyl)6-oxo-1,6-dihydropyridazine-3-yl)benzonitrile]
IC50 (Hs746T): < 100 nM | IC50 (MKN-45): < 100 nM

N#Cc1cccc(-c2ccc(=O)n(Cc3cccc(-c4ncc(OCC5CCN(CCCC(=O)N6CCN(c7ccc8c(=O)n(C9CCC(=O)NC9=O)ncc8c7)CC6)CC5)cn4)c3)n2)c1 (stereo not shown) [ICT-0001226]
IC50 (Hs746T): < 100 nM | IC50 (MKN-45): < 100 nM

N#Cc1cccc(-c2ccc(=O)n(Cc3cccc(-c4ncc(OCC5CCN(CCC(=O)N6CCN(c7ccc8c(=O)n(C9CCC(=O)NC9=O)ncc8c7)CC6)CC5)cn4)c3)n2)c1 (stereo not shown) [ICT-0001223]
IC50 (Hs746T): < 100 nM | DC50 (c-MET [4]): < 100 nM | IC50 (MKN-45): < 100 nM

Cc1nn(C2CCC(=O)NC2=O)c(=O)c2cc(F)c(N3CCN(CC4CCN(C(=O)CN5CCC(COc6cnc(-c7cccc(Cn8nc(-c9cccc(C#N)c9)ccc8=O)c7)nc6)CC5)CC4)CC3)cc12 (stereo not shown) [ICT-0001204]
IC50 (Hs746T): 100 to 1000 nM | IC50 (EBC-1): < 100 nM | DC50 (c-MET [4]): < 100 nM | IC50 (MKN-45): < 100 nM

Cc1nn(C2CCC(=O)NC2=O)c(=O)c2cc(N3CCN(C(=O)CCCN4CCC(COc5cnc(-c6cccc(Cn7nc(-c8cccc(C#N)c8)ccc7=O)c6)nc5)CC4)CC3)ccc12 (stereo not shown) [ICT-0001228]
IC50 (Hs746T): 100 to 1000 nM | DC50 (c-MET [4]): < 100 nM

Cc1nn(C2CCC(=O)NC2=O)c(=O)c2ccc(N3CCN(CCN4CCC(COc5cnc(-c6cccc(Cn7nc(-c8cccc(C#N)c8)ccc7=O)c6)nc5)CC4)CC3)cc12 (stereo not shown) [ICT-0001277, 3-(1-{[3-(5-{[1-(2-{4-[2-(2,6-dioxopiperidin-3-yl)-4-methyl-1-oxo-1,2-dihydrophthalazine-6-yl]piperazine-1-yl}ethyl)piperidine-4-il]methoxy}pyrimidine-2-yl)phenyl]methyl}6-oxo-1,6-dihydropyridazine-3-yl)benzonitrile]
IC50 (SNU-638): < 100 nM | IC50 (Hs746T): < 100 nM | DC50 (c-MET [1]): < 100 nM | IC50 (EBC-1): < 100 nM | DC50 (c-MET [4]): < 100 nM | DC50 (c-MET [2]): < 100 nM | IC50 (MKN-45): < 100 nM | DC50 (c-MET [3]): < 100 nM

Cc1nn(C2CCC(=O)NC2=O)c(=O)c2ccc(N3CCN(C(=O)CCCCN4CCC(COc5cnc(-c6cccc(Cn7nc(-c8cccc(C#N)c8)ccc7=O)c6)nc5)CC4)CC3)cc12 (stereo not shown) [ICT-0001250]
IC50 (Hs746T): < 100 nM | IC50 (MKN-45): < 100 nM

N#Cc1cccc(-c2ccc(=O)n(Cc3cccc(-c4ncc(OCC5CCN(CC(=O)NCCCC#Cc6ccc7c(=O)n(C8CCC(=O)NC8=O)ncc7c6)CC5)cn4)c3)n2)c1 (stereo not shown) [ICT-0001205]
IC50 (Hs746T): 100 to 1000 nM | DC50 (c-MET [4]): < 100 nM | IC50 (MKN-45): < 100 nM
